From publication PMC8455565 (Scientific Reports, 2021)

Experiments:
BMX = molecular target: T1, BMX (Homo sapiens, UniProt P51813); assay: Kinase selectivity biochemical assay (FRET), BMX
T1 sequence (P51813 1-675): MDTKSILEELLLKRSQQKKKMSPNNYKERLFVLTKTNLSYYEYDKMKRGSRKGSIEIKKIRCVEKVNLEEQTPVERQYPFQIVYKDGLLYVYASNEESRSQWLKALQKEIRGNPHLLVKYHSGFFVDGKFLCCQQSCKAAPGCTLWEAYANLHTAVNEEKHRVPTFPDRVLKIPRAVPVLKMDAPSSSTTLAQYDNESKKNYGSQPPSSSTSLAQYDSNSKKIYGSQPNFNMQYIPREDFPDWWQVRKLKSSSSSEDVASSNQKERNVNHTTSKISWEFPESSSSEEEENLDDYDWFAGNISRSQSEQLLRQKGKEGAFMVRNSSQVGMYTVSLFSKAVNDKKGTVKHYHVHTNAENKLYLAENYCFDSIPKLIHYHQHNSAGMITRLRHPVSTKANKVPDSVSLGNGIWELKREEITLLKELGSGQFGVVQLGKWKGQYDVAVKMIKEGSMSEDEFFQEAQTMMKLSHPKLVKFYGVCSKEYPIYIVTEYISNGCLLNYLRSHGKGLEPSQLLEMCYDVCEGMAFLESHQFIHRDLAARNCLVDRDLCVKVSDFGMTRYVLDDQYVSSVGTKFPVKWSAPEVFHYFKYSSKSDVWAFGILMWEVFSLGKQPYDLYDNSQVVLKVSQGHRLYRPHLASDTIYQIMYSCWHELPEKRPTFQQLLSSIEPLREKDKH

ITK = molecular target: T2, ITK (Homo sapiens, UniProt Q08881); assay: Kinase selectivity biochemical assay, ITK
T2 sequence (Q08881 1-620): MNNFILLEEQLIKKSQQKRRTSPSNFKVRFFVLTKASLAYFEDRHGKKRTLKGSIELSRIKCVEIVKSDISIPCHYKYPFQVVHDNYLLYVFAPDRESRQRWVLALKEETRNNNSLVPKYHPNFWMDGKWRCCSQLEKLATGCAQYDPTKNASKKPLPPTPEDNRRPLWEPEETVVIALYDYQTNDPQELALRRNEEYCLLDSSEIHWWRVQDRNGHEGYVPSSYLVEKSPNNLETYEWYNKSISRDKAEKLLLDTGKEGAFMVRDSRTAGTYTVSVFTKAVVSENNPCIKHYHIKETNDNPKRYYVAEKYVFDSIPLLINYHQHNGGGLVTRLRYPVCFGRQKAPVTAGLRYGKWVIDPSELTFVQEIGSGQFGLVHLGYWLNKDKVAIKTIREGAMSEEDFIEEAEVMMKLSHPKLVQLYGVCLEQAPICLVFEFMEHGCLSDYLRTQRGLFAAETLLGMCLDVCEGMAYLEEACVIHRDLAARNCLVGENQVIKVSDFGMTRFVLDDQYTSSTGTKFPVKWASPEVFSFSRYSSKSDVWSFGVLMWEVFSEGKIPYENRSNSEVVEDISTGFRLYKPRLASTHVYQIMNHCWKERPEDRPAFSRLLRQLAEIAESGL

BTK = molecular target: T3, BTK (Rattus norvegicus, UniProt Q5S255); assay: BTK occupancy and BTK phosphorylation in CIA model rats (PD); type: in vivo; settings: for correlation coefficient, arthritis score vs BTK occupancy: negative correlation; for correlation coefficient, clinical arthritis score vs BTK phosphorylation: positive correlation
T3 construct: endogenous in cells; host or cells: rat PBMCs (normal rats in vitro; CIA model rats ex vivo)
T3 sequence (Q5S255 1-660): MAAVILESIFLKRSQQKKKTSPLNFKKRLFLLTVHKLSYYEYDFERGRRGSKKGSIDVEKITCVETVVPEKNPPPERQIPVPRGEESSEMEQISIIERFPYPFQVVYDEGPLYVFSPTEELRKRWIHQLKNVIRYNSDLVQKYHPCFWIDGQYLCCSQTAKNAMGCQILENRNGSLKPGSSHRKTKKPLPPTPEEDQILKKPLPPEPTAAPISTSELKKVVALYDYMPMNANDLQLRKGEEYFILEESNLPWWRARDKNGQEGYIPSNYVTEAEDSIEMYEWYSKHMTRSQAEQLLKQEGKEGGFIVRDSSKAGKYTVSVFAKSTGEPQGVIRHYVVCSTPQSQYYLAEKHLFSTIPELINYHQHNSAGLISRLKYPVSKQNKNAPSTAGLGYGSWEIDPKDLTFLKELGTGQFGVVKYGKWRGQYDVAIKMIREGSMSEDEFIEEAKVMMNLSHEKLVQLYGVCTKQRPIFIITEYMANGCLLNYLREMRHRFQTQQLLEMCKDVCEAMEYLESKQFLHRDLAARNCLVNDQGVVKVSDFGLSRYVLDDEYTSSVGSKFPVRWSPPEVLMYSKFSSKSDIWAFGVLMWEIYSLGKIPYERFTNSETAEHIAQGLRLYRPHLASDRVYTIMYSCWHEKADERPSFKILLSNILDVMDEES
Description: The BTK occupancy assay and analysis of BTK phosphorylation inhibition were performed as described previously. Briefly, isolated PBMCs were lysed with RIPA buffer (R0278, Sigma-Aldrich) containing 1 × protease/phosphatase inhibitor (1861281, Thermo Fisher Scientific) and EDTA (1861274, Thermo Fisher Scientific). The supernatants were collected by 10 min at 14,000 × g in microcentrifuge at 4 °C and biotinylated probe was added to bind free BTK for 1 h. Rabbit anti-BTK Ab (1:5000 in 1% BSA) bound the captured BTK/probe complex, and was detected with […] antibody conjugated with HRP then ultra-TMB solution was added to each well for the free BTK analysis. Analysis of free and total BTK levels for the phase I study was conducted by Cambridge Biomedical Inc. (MA, USA). BTK occupancy was calculated by taking the free BTK and total BTK results from a given donor and used the following formula: %BTKoccupancy=100%-FreeBTK/totalBTK×100.
For analysis of BTK phosphorylation inhibition, the relative percentage of phosphorylated BTK was calculated by the following equation: phospho-BTK level / total BTK level × 100. The results are presented as the mean percentage ± S.D.
Figure 5 Pharmacologic inhibition of BTK and its correlation with efficacy. (A,B) Whole blood was collected from the CIA-induced rats at the 0, 4, 12, 24 h after final drug administration, and then PBMCs and plasma were isolated. BTK phosphorylation was detected by immunoblotting and normalized to the total BTK level, and BTK occupancy was measured by ELISA using a biotinylated probe as described in the Materials and Methods. […] Full-length blots are presented in Supplementary Fig. 1. (C) Correlations between drug efficacy (clinical arthritis score) and the PD markers BTK phosphorylation percentage (left)/drug efficacy and BTK occupancy percentage (right). Linear regression was performed by using GraphPad Prism 6. The data are presented as the mean ± S.D.

B cells (IgM+CD40L) = assay: High-dimensional phosphorylation analysis, B cells (IgM+CD40L); type: cell-based, human
Description: (§1) The analysis measured 94 intracellular signaling nodes (81 phosphorylation sites, 10 total protein levels and 3 methylation/acetylation sites) in stimulated immune cells, including B cells (IgM plus CD40L), CD4 + and CD8 + T cells (IL-2; CD3 plus CD28), monocytes (M-CSF), NK cells (IL-2), and granulocytes (LPS).

CD4+ Memory (CD3+CD28) = assay: High-dimensional phosphorylation analysis, CD4+ Memory (CD3+CD28); type: cell-based, human; settings: 30 µM, 5'
Description: as §1

[1] = 30 μM, all time points (2, 5, 15, 60 min)

C=CC(=O)Nc1cccc(Oc2nc(Nc3ccc(N4CCN(C)CC4)cc3)nc3ccoc23)c1 [Poseltinib]
IC50 (BMX): < 10 nM | selectivity toward BTK over ITK (ITK): 53 × | BTK occupancy (BTK; 3 mg/kg, 4 h after the last administration): full BTK occupancy | BTK occupancy (BTK; 3 mg/kg, at 12 and 24 h): completely occupied | BTK occupancy (BTK; 0.3 and 1 mg/kg, 4 h after the last administration): partial BTK occupancy | BTK phosphorylation (BTK; 0.3 and 1 mg/kg, at 12 and 24 h): partially inhibited | correlation coefficient, arthritis score vs BTK occupancy (BTK; 4 h): 0.8003 | correlation coefficient, clinical arthritis score vs BTK phosphorylation (BTK; 4 h): 0.6750 | correlation coefficient, arthritis score vs BTK occupancy (BTK; 12 h): 0.8757 | correlation coefficient, clinical arthritis score vs BTK phosphorylation (BTK; 12 h): 0.7795 | correlation coefficient, arthritis score vs BTK occupancy (BTK; 24 h): 0.8528 | correlation coefficient, clinical arthritis score vs BTK phosphorylation (BTK; 24 h): 0.8603 | Akt phosphorylation, Log2Ratio Stim/Control (B cells (IgM+CD40L); 30 µM, 5'): -0.97 | BTK phosphorylation, Log2Ratio Stim/Control (B cells (IgM+CD40L); 30 µM, 5'): 0.06 | CREB1 phosphorylation, Log2Ratio Stim/Control (B cells (IgM+CD40L); 30 µM, 5'): 1.74 | MAPK3 phosphorylation, Log2Ratio Stim/Control (B cells (IgM+CD40L); 30 µM, 5'): 1.30 | PLCγ2 phosphorylation, Log2Ratio Stim/Control (B cells (IgM+CD40L); 30 µM, 5'): 0.82 | RPS6KA1 phosphorylation, Log2Ratio Stim/Control (B cells (IgM+CD40L); 30 µM, 5'): 1.13 | RPS6 phosphorylation, Log2Ratio Stim/Control (B cells (IgM+CD40L); 30 µM, 5'): 1.35 | SAPK/JNK phosphorylation, Log2Ratio Stim/Control (B cells (IgM+CD40L); 30 µM, 5'): 0.82 | SLP76 phosphorylation, Log2Ratio Stim/Control (B cells (IgM+CD40L); 30 µM, 5'): 0.86 | WIPF1 phosphorylation, Log2Ratio Stim/Control (B cells (IgM+CD40L); 30 µM, 5'): 1.81 | phosphorylation of AKT (S473) (B cells (IgM+CD40L); [1]): inhibited | phosphorylation of BTK (Y223) (B cells (IgM+CD40L); [1]): inhibited | phosphorylation of PLCγ2 (Y759) (B cells (IgM+CD40L); [1]): inhibited | BTK phosphorylation, Log2Ratio Stim/Control (CD4+ Memory (CD3+CD28)): 1.21 | CD247 phosphorylation, Log2Ratio Stim/Control (CD4+ Memory (CD3+CD28)): 2.86 | CrkL phosphorylation, Log2Ratio Stim/Control (CD4+ Memory (CD3+CD28)): 1.63 | LCK phosphorylation, Log2Ratio Stim/Control (CD4+ Memory (CD3+CD28)): 1.51 | PLCγ2 phosphorylation, Log2Ratio Stim/Control (CD4+ Memory (CD3+CD28)): 2.43 | PTK2B phosphorylation, Log2Ratio Stim/Control (CD4+ Memory (CD3+CD28)): 0.93 | SLP76 phosphorylation, Log2Ratio Stim/Control (CD4+ Memory (CD3+CD28)): 1.63 | Src phosphorylation, Log2Ratio Stim/Control (CD4+ Memory (CD3+CD28)): 0.82 | ZAP70 phosphorylation, Log2Ratio Stim/Control (CD4+ Memory (CD3+CD28)): 1.22
